The assay addresses Envelope glycoprotein gp160 (Human immunodeficiency virus 1, UniProt Q6QLK5). Description: cell-free HIV fusion peptide-binding blockers – biochemical, uHTS, fluorescence dequenching, […] (AID 1986).

We go through 1 compound from ChEMBL document CHEMBL1201862, “PubChem BioAssay data set” (2004).

The source made the active and inactive calls. Rule as the data show it: actives have a measured IC50 and inactives only a lower limit.

Chain of Envelope glycoprotein gp160 (Q6QLK5 whole entry, the tested form may be a part): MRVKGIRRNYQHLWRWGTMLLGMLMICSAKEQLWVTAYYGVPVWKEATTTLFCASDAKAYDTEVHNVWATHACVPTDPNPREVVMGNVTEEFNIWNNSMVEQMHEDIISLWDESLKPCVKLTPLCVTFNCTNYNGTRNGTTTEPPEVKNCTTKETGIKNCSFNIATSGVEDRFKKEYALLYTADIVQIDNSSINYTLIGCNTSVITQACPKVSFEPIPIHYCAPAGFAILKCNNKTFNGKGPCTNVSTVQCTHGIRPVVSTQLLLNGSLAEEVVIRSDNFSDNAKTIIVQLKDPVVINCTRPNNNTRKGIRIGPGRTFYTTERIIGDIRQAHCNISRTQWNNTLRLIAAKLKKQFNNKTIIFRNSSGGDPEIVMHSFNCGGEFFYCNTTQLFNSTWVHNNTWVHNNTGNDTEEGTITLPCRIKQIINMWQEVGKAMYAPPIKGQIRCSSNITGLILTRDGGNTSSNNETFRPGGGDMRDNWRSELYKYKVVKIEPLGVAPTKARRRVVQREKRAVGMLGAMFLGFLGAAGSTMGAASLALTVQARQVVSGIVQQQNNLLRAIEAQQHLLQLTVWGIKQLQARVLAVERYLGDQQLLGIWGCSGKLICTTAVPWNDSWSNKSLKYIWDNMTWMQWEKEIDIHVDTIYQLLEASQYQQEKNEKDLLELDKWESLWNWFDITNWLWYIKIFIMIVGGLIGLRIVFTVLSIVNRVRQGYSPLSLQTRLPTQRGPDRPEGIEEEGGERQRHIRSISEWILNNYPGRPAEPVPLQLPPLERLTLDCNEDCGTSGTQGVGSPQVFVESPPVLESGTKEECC

In general, IC50 refers to the concentration needed to halve the response being measured. As for `COc1ccc(-c2coc3c(C)c4oc(=O)c(CCC(=O)O)c(C)c4cc23)cc1`, the IC50 is 41.7 µM (active).
